Each structure is given as a SMILES string.

The nature of one test: Inhibition of SDHB in human U2OS cells over-expressing Bim assessed as inhibition of apoptosis preincubated for 1 hr followed by doxycyclin addition to induce Bim protein expression measured after 24 hrs by Cell Titer-Glo assay.
On to `Cc1cccc(-c2cc(C(F)(F)F)nc(S(C)(=O)=O)n2)c1`, for which the EC50 was 3.49 µM.
Turning to `COCCCS(=O)(=O)c1nc(-c2ccc(=O)n(Cc3ccc(OC)c(OC)c3)c2)cc(C(F)(F)F)n1`, the concentration for a half-maximal effect (EC50) was determined as 0.282 µM.
As to `O=S(=O)(CCc1ccccc1)c1nc(-c2cccs2)cc(C(F)(F)F)n1`, the EC50 amounted to 1.59 µM.
For the compound `COc1cccc(Cn2cc(-c3cc(C(F)(F)F)nc(S(C)(=O)=O)n3)ccc2=O)c1`, the half-maximal effective concentration (EC50) was found to be 0.057 µM.
The same measure, in the same setting: the figure for `Cc1ccc(-c2cc(C(F)(F)F)nc(S(C)(=O)=O)n2)cc1` is 6.36 µM; for `CS(=O)(=O)c1nc(-c2cccc(Oc3ccccc3)c2)cc(C(F)(F)F)n1` it is 8.76 µM.
On the same count and under the same terms, with `CS(=O)(=O)c1nc(-c2ccc(=O)n(Cc3ccccc3Cl)c2)cc(C(F)(F)F)n1` the figure was 1.14 µM.
As for `O=S(=O)(Cc1ccc(-c2ccccc2)cc1)c1nc(-c2cccs2)cc(C(F)(F)F)n1`, the EC50 amounted to 4.21 µM.
Still for that read-out and setting: the figure for `CS(=O)(=O)c1nc(-c2cccs2)cc(-c2cccs2)n1` is over 20 µM; for `COC(=O)c1ccccc1-c1cc(C(F)(F)F)nc(S(C)(=O)=O)n1` it is 7.03 µM.
Still for that read-out and setting: with `Cc1ccccc1-c1cc(C(F)(F)F)nc(S(C)(=O)=O)n1` the figure was 6.64 µM.
Same read-out and setting: the figure for `CS(=O)(=O)c1nc(N=[N+]=[N-])cc(-c2cccs2)n1` is over 20 µM; for `CN(C)C(=O)c1cccc(-c2cc(C(F)(F)F)nc(S(C)(=O)=O)n2)c1` it is over 20 µM; for `Cc1ccc(O)c(NC(=O)CCCS(=O)(=O)c2nc(-c3cccs3)cc(C(F)(F)F)n2)c1` it is 4 µM.
In the case of `CCCCCS(=O)(=O)c1nc(-c2ccc(=O)n(Cc3ccc(OC)c(OC)c3)c2)cc(C(F)(F)F)n1`, the EC50 was 0.364 µM.
Still for that read-out and setting: the figure for `CS(=O)(=O)c1nc(-c2ccc(=O)n(Cc3ccc(C#N)cc3)c2)cc(C(F)(F)F)n1` is 3.49 µM; for `CS(=O)(=O)c1nc(-c2ccc(=O)n(Cc3cccc(O)c3)c2)cc(C(F)(F)F)n1` it is 1.82 µM.
Still for that read-out and setting: with `C#Cc1ccc(Cn2cc(-c3cc(C(F)(F)F)nc(S(C)(=O)=O)n3)ccc2=O)cc1` the figure was 0.817 µM; with `CS(=O)(=O)c1nc(-c2ccc(=O)[nH]c2)cc(C(F)(F)F)n1`, over 20 µM; with `COc1ccc(Cn2cc(-c3cc(C(F)(F)F)nc(S(C)(=O)=O)n3)ccc2=O)cc1OC`, 0.025 µM.
With `COc1ccc(Cn2cc(-c3cc(C(F)(F)F)nc(S(C)(=O)=O)n3)ccc2=O)cc1`, the concentration for a half-maximal effect (EC50) worked out at 0.094 µM.
For the compound `CS(=O)(=O)c1nc(-c2ccc(=O)n(Cc3ccc(Cl)cc3)c2)cc(C(F)(F)F)n1`, the half-maximal effective concentration (EC50) stood at 0.066 µM.
`CCCCCCCS(=O)(=O)c1nc(-c2ccc(=O)n(Cc3ccc(OC)c(OC)c3)c2)cc(C(F)(F)F)n1`: the concentration giving a half-maximal response (EC50) amounted to 0.253 µM.
Still for that read-out and setting: with `CCOC(=O)CCS(=O)(=O)c1nc(-c2cccs2)cc(C(F)(F)F)n1` the figure was 1.14 µM; with `C#Cc1cccc(Cn2cc(-c3cc(C(F)(F)F)nc(S(C)(=O)=O)n3)ccc2=O)c1`, 4.48 µM.
In the case of `CS(=O)(=O)c1nc(-c2ccc(=O)n(Cc3cccc(C#N)c3)c2)cc(C(F)(F)F)n1`, the EC50 was 4.06 µM.
On to `COc1ccc(Cn2cc(-c3cc(C(F)(F)F)nc(S(=O)(=O)CCCC(=O)N4CCCC4)n3)ccc2=O)cc1OC`, for which the EC50 was 0.027 µM.
Regarding `CCOc1cccc(Cn2cc(-c3cc(C(F)(F)F)nc(S(C)(=O)=O)n3)ccc2=O)c1`, the EC50 worked out at 0.11 µM.
Consider `COCCS(=O)(=O)c1nc(-c2ccc(=O)n(Cc3ccc(OC)c(OC)c3)c2)cc(C(F)(F)F)n1`, for which the EC50 was 0.216 µM.
`CS(=O)(=O)c1nc(-c2cccs2)cc(C(F)(F)F)n1` [MLS000044645]: the EC50 came out at 0.749 µM.
As to `CS(=O)(=O)c1nc(-c2ccccc2)cc(C(F)(F)F)n1` [MLS000044644], the EC50 turned out to be 2.2 µM.
On the same count and under the same terms, the figure for `CCS(=O)(=O)c1nc(-c2cccs2)cc(C(F)(F)F)n1` is 1.43 µM; for `CS(=O)(=O)c1nc(-c2cccs2)cc(C2CCC(=O)N2)n1` (centres undefined) it is over 20 µM.
In the case of `CCCOc1cccc(Cn2cc(-c3cc(C(F)(F)F)nc(S(C)(=O)=O)n3)ccc2=O)c1`, the EC50 worked out at 0.069 µM.
Same read-out and setting: with `COC(=O)c1cccc(-c2cc(C(F)(F)F)nc(S(C)(=O)=O)n2)c1` the figure was 3.52 µM; with `CS(=O)(=O)c1nc(-c2ccc(=O)n(Cc3ccccc3)c2)cc(C(F)(F)F)n1`, 1.16 µM.
Consider `COc1ccc(Cn2cc(-c3cc(C(F)(F)F)nc(S(=O)(=O)CCCC(N)=O)n3)ccc2=O)cc1OC`, for which the concentration giving a half-maximal response (EC50) is over 20 µM.
In the case of `CS(=O)(=O)c1nc(-c2ccc(=O)n(Cc3cccc(Cl)c3)c2)cc(C(F)(F)F)n1`, the EC50 stood at 0.257 µM.
Same read-out and setting: with `COc1ccc(Cn2cc(-c3cc(C(F)(F)F)nc(S(=O)(=O)CCCC(=O)N(C)C)n3)ccc2=O)cc1OC` the figure was 0.164 µM.
The same measure, in the same setting: with `COC(=O)c1ccc(-c2cc(C(F)(F)F)nc(S(C)(=O)=O)n2)cc1` the figure was over 20 µM.
The same measure, in the same setting: the figure for `COc1ccc(Cn2cc(-c3cc(C(F)(F)F)nc(S(=O)(=O)CCCC(=O)NC45CC6CC(CC(C6)C4)C5)n3)ccc2=O)cc1OC` is 0.00042 µM; for `COc1ccc(Cn2cc(-c3cc(C(F)(F)F)nc(S(=O)(=O)CCCC(=O)N4CCCCC4)n3)ccc2=O)cc1OC` it is 0.0014 µM; for `Cc1cc(-c2cccs2)nc(S(C)(=O)=O)n1` it is over 20 µM.

A short description of the next test: Inhibition of SDHB in human U2OS cells over-expressing tBid assessed as reduction in apoptosis preincubated for 1 hr followed by doxycyclin addition to induce tBid protein expression measured after 24 hrs by Cell Titer-Glo assay. Background: Cellular ATP, detected with luciferase, serves as a proxy for viable cell number.
Consider `COc1ccc(Cn2cc(-c3cc(C(F)(F)F)nc(S(=O)(=O)CCCC(=O)NC45CC6CC(CC(C6)C4)C5)n3)ccc2=O)cc1OC`, for which the 50% effective concentration (EC50) was 0.00023 µM.

Broadly, the EC50 is the concentration giving half of the maximal effect.

The values above are taken from BindingDB's records for doi:10.1021/acsmedchemlett.6b00489 (Peking University, 2017).
